Measured values as given in patent publication US12233032B2, “Compositions for management of polycystic ovary syndrome” (Sami-Sabinsa Group Limited, priority 2021, dated 2025).
Marks after values point to notes of the source that are not given here.

Experiments:
Assay type in all cases: in vivo
[1] = tested on: PCOS induced by letrozole in female Wistar rats; experiment: Ovarian weight in letrozole-induced PCOS; conditions: day 22 to day 36
Protocol: (§1) Animals and Experimental design: Animals were housed under standard air-conditioned laboratory conditions. The temperature was maintained at maximum: 24° C. and a minimum of 23° C. and Relative humidity at maximum: 63% and a minimum of 48% with 12 h light and 12 h dark cycle. The maximum and minimum temperature and relative humidity in the experimental room were recorded once daily. Female virgin Wistar rats (150-200 g) was checked daily for 4-day ovarian cycle using vaginal cytology. PCOS was induced by oral administration of aromatase inhibitor, letrozole (1 mg/kg) dissolved in 0.5% CMC (2 mg/kg) for 21 days. During the experiment, the estrous cycle was monitored by the analyses of relative proportion of leukocytes, epithelial and cornified cells in vaginal smears. Following letrozole administration, test samples were administered to animals from day 22 to day 36. After treatment protocol, animal from all groups (Table 1) were fasted overnight and anesthetized with diethylether/halothane. The blood was collected by retino-orbital puncture, then serum was separated by centrifugation followed by estimation of hormones and other biochemical parameters using commercially available ELISA kits. The serum hormone levels, body weight and ovary weigh of the animals were assessed to ascertain the effective dose.

[2] = tested on: PCOS induced by letrozole in female Wistar rats; experiment: Thyroid function analysis (serum T3, T4, TSH) in PCOS
Protocol: Animals and Experimental design: Animals were housed under standard air-conditioned laboratory conditions. The temperature was maintained at maximum: 24° C. and a minimum of 23° C. and Relative humidity at maximum: 63% and a minimum of 48% with 12 h light and 12 h dark cycle. The maximum and minimum temperature and relative humidity in the experimental room were recorded once daily. Female virgin Wistar rats (150-200 g) was checked daily for 4-day ovarian cycle using vaginal cytology. PCOS was induced by oral administration of aromatase inhibitor, letrozole (1 mg/kg) dissolved in 0.5% CMC (2 mg/kg) for 21 days. During the experiment, the estrous cycle was monitored by the analyses of relative proportion of leukocytes, epithelial and cornified cells in vaginal smears.
Following letrozole administration, test samples were administered to animals from day 22 to day 36. After treatment protocol, animal from all groups (Table 1) were fasted overnight and anesthetized with diethylether/halothane. The blood was collected by retino-orbital puncture, then serum was separated by centrifugation followed by estimation of hormones and other biochemical parameters using commercially available ELISA kits.
Based on the above results, the following groups were taken for further analysis BDMC 25 mg/kg p.o. • BDMC 50 mg/kg p.o. • AC3 100 mg/kg p.o. • AC3 200 mg/kg p.o.
The following molecular targets were assessed: • 1. Thyroid Function analysis • 2. Effect on androgen profile • 3. Effect on serum adiponectin levels • 4. Insulin resistance • 5. Effect on Serum Paraoxonase 1 Activity • 6. Effect of gut microbiota • 7. Oxidative stress and inflammatory markers Thyroid Function Analysis

[3] = tested on: PCOS induced by letrozole in female Wistar rats; experiment: Body weight in letrozole-induced PCOS
Protocol: as §1

[4] = tested on: PCOS induced by letrozole in female Wistar rats; experiment: Serum hormonal levels (17-β estradiol, progesterone, FSH, LH) in letrozole-induced PCOS; conditions: day 22 to day 36
Protocol: as §1

Q: What does the source list for O=C(/C=C/c1ccc(O)cc1)CC(=O)/C=C/c1ccc(O)cc1 [BDMC, bisdemethoxycurcumin]?
A: Ovarian weight ([1]; 3.12 mg/kg): 63.88 ± 2.19 mg; Ovarian weight ([1]; 6.25 mg/kg): 59.64 ± 2.32 mg; Ovarian weight ([1]; 12.5 mg/kg): 54.36 ± 2.80 mg; Ovarian weight ([1]; 25 mg/kg): 47.88 ± 2.76 mg; Ovarian weight ([1]; 50 mg/kg): 48.54 ± 2.42 mg; Serum hormonal levels T3 ([2]; 25 mg/kg p.o.): 3.3 ± 0.18 μIU/ml; Serum hormonal levels T4 ([2]; 25 mg/kg p.o.): 11.78 ± 0.39 μIU/ml; Serum hormonal levels TSH ([2]; 25 mg/kg p.o.): 5.28** nmol/L; Serum hormonal levels T3 ([2]; 50 mg/kg p.o.): 3.05 ± 0.17 μIU/ml; Serum hormonal levels T4 ([2]; 50 mg/kg p.o.): 10.45 ± 0.27 μIU/ml; Serum hormonal levels TSH ([2]; 50 mg/kg p.o.): 7.12** nmol/L; Average body weight ([3]; 3.12 mg/kg from day 22, Day 28 (PCOS + Treatment)): 202 ± 4.15 g; Average body weight ([3]; 3.12 mg/kg from day 22, Day 36 (PCOS + Treatment)): 200 ± 6.36 g; Average body weight ([3]; 3.12 mg/kg group, Day 1 (PCOS induction, before treatment)): 158 ± 6.16 g; Average body weight ([3]; 3.12 mg/kg group, Day 7 (PCOS induction, before treatment)): 175 ± 5.27 g; Average body weight ([3]; 3.12 mg/kg group, Day 14 (PCOS induction, before treatment)): 194 ± 5.77 g; Average body weight ([3]; 3.12 mg/kg group, Day 21 (PCOS induction, before treatment)): 210 ± 7.58 g; Average body weight ([3]; 6.25 mg/kg from day 22, Day 28 (PCOS + Treatment)): 201 ± 6.88 g; Average body weight ([3]; 6.25 mg/kg from day 22, Day 36 (PCOS + Treatment)): 198 ± 6.45 g; Average body weight ([3]; 6.25 mg/kg group, Day 1 (PCOS induction, before treatment)): 157 ± 8.15 g; Average body weight ([3]; 6.25 mg/kg group, Day 7 (PCOS induction, before treatment)): 175.3 ± 4.5 g; Average body weight ([3]; 6.25 mg/kg group, Day 14 (PCOS induction, before treatment)): 195.5 ± 6.6 g; Average body weight ([3]; 6.25 mg/kg group, Day 21 (PCOS induction, before treatment)): 215 ± 5.78 g; Average body weight ([3]; 12.5 mg/kg from day 22, Day 28 (PCOS + Treatment)): 200 ± 6.57 g; Average body weight ([3]; 12.5 mg/kg from day 22, Day 36 (PCOS + Treatment)): 196 ± 5.26 g; Average body weight ([3]; 12.5 mg/kg group, Day 1 (PCOS induction, before treatment)): 158 ± 7.88 g; Average body weight ([3]; 12.5 mg/kg group, Day 7 (PCOS induction, before treatment)): 174 ± 2.83 g; Average body weight ([3]; 12.5 mg/kg group, Day 14 (PCOS induction, before treatment)): 202.5 ± 8.12^ g; Average body weight ([3]; 12.5 mg/kg group, Day 21 (PCOS induction, before treatment)): 212 ± 6.36 g; Average body weight ([3]; 25 mg/kg from day 22, Day 28 (PCOS + Treatment)): 201 ± 5.54 g; Average body weight ([3]; 25 mg/kg from day 22, Day 36 (PCOS + Treatment)): 191 ± 5.84 g; Average body weight ([3]; 25 mg/kg group, Day 1 (PCOS induction, before treatment)): 157.5 ± 8.16^ g; Average body weight ([3]; 25 mg/kg group, Day 7 (PCOS induction, before treatment)): 172 ± 6.46 g; Average body weight ([3]; 25 mg/kg group, Day 14 (PCOS induction, before treatment)): 190.5 ± 4.44^ g; Average body weight ([3]; 25 mg/kg group, Day 21 (PCOS induction, before treatment)): 210 ± 5.12 g; Average body weight ([3]; 50 mg/kg from day 22, Day 28 (PCOS + Treatment)): 199 ± 8.15 g; Average body weight ([3]; 50 mg/kg from day 22, Day 36 (PCOS + Treatment)): 192 ± 6.36 g; Average body weight ([3]; 50 mg/kg group, Day 1 (PCOS induction, before treatment)): 157 ± 6.13 g; Average body weight ([3]; 50 mg/kg group, Day 7 (PCOS induction, before treatment)): 168 ± 5.47 g; Average body weight ([3]; 50 mg/kg group, Day 14 (PCOS induction, before treatment)): 190 ± 10.42 g; Average body weight ([3]; 50 mg/kg group, Day 21 (PCOS induction, before treatment)): 211 ± 7.58 g; Serum hormonal levels 17-β estradiol ([4]; 3.12 mg/kg): 16.89 ± 3.01 pg/mL; Serum hormonal levels FSH ([4]; 3.12 mg/kg): 10.54 ± 1.44 mIU/mL; Serum hormonal levels LH ([4]; 3.12 mg/kg): 26.33 ± 3.02 mIU/mL; Serum hormonal levels Progesterone ([4]; 3.12 mg/kg): 18.67 ± 1.03 ng/mL; Serum hormonal levels 17-β estradiol ([4]; 6.25 mg/kg): 18.22 ± 2.44 pg/mL; Serum hormonal levels FSH ([4]; 6.25 mg/kg): 10.98 ± 1.52 mIU/mL; Serum hormonal levels LH ([4]; 6.25 mg/kg): 27.32 ± 2.30 mIU/mL; Serum hormonal levels Progesterone ([4]; 6.25 mg/kg): 20.56 ± 1.09 ng/mL; Serum hormonal levels 17-β estradiol ([4]; 12.5 mg/kg): 18.89 ± 1.65 pg/mL; Serum hormonal levels FSH ([4]; 12.5 mg/kg): 12.58 ± 1.08 mIU/mL; Serum hormonal levels LH ([4]; 12.5 mg/kg): 24.36 ± 2.11 mIU/mL; Serum hormonal levels Progesterone ([4]; 12.5 mg/kg): 23.50 ± 2.21 ng/mL; Serum hormonal levels 17-β estradiol ([4]; 25 mg/kg): 22.50 ± 1.67 pg/mL; Serum hormonal levels FSH ([4]; 25 mg/kg): 13.28 ± 1.34 mIU/mL; Serum hormonal levels LH ([4]; 25 mg/kg): 21.54 ± 1.26 mIU/mL; Serum hormonal levels Progesterone ([4]; 25 mg/kg): 26.95 ± 1.53 ng/mL; Serum hormonal levels 17-β estradiol ([4]; 50 mg/kg): 21.26 ± 2.32 pg/mL; Serum hormonal levels FSH ([4]; 50 mg/kg): 13.07 ± 1.36 mIU/mL; Serum hormonal levels LH ([4]; 50 mg/kg): 22.78 ± 1.76 mIU/mL; Serum hormonal levels Progesterone ([4]; 50 mg/kg): 26.28 ± 1.22 ng/mL
